Test results reported in ChEMBL document CHEMBL3739354, “Nitrofuranyl Methyl Piperazines as New Anti-TB Agents: Identification, Validation, Medicinal Chemistry, and PK Studies” (ACS Med Chem Lett, 2015).
≈ marks a conversion by molar mass, not a printed value.

Columns and labels:
[1] = system: Mycobacterium tuberculosis; experiment: microbe, parasite or virus in culture; details: H37Rv ATCC 27294, 168 h
Description: Antimycobacterial activity against Mycobacterium tuberculosis H37Rv ATCC 27294 after 7 days by REMA method

[2] = Cytotoxicity against human HepG2 cells after 24 hrs by MTT assay; assay type: cell-based
[3] = Selectivity index, ratio of CC50 for human HepG2 cells to MIC90 for Mycobacterium tuberculosis H37Rv ATCC 27294; assay type: toxicity, cell-based; details: read-out: Selectivity Index
[4] = system: Mycobacterium tuberculosis; experiment: microbe, parasite or virus in culture; details: 18b, 168 h
Description: Antimycobacterial activity against non-replicating streptomycin starved Mycobacterium tuberculosis 18b after 7 days by REMA method

[5] = Solubility of compound in water; assay type: physicochemical
[6] = Solubility of compound in PBS buffer; assay type: physicochemical
[7] = Solubility of compound in simulated gastric fluid; assay type: ADME, Stomach
[8] = Solubility of compound in simulated intestinal fluid; assay type: ADME
[9] = Cmax in Swiss mouse at 10 mg/kg, po by LC-MS/MS analysis; assay type: ADME, organism-based; set-up: dose 10 mg/kg, route oral; details: in vivo
[10] = Tmax in Swiss mouse at 10 mg/kg, po by LC-MS/MS analysis; assay type: ADME, organism-based; details: in vivo
[11] = AUC(0 to t) in Swiss mouse at 10 mg/kg, po by LC-MS/MS analysis; assay type: ADME, organism-based; details: in vivo
[12] = Half life in Swiss mouse at 10 mg/kg, po by LC-MS/MS analysis; assay type: ADME, organism-based; details: in vivo

Structure (SMILES)	MIC90 [1] [µM]	CC50 at 24 h [2] [µM]	selectivity ratio [3]	MIC90 [4] [µM]	other results
O=[N+]([O-])c1ccc(CN2CCN(c3cccc(C(F)(F)F)c3)CC2)o1	0.33 (≈ 0.117 µg/mL)	–	–	–	–
O=[N+]([O-])c1ccc(CN2CCN(c3ccc(Cl)cc3)CC2)o1	0.37 (≈ 0.119 µg/mL)	> 58	> 11600	1.4 (≈ 0.45 µg/mL)	–
CC(C)(C)OC(=O)N1CCN(Cc2ccc([N+](=O)[O-])o2)CC1	0.048 (≈ 0.0149 µg/mL)	> 64	> 1600	1.6 (≈ 0.498 µg/mL)	solubility [5]: 1290 µM (≈ 400 µg/mL); solubility [6]: 2570 µM (≈ 800 µg/mL); solubility [7]: 2570 µM (≈ 800 µg/mL); solubility [8]: 2570 µM (≈ 800 µg/mL); Cmax [9]: 3.81 µM; Tmax [10]: 15 min; AUC(0-t) [11]: 2.71 µM·h; half-life [12]: 101 min
c1ccc(N2CCN(Cc3ccco3)CC2)cc1	> 16.5	–	–	–	–
O=[N+]([O-])c1ccc(CN2CCN(S(=O)(=O)c3ccccc3)CC2)o1	0.17 (≈ 0.0597 µg/mL)	> 56	> 329	> 22.7	–
COc1ccc(N2CCN(Cc3ccc([N+](=O)[O-])o3)CC2)cc1	0.12 (≈ 0.0381 µg/mL)	–	–	–	–
O=[N+]([O-])c1ccc(S(=O)(=O)N2CCN(Cc3ccc([N+](=O)[O-])o3)CC2)cc1	0.15 (≈ 0.0595 µg/mL)	> 50	> 333	20.1 (≈ 7.97 µg/mL)	–
CC(=O)c1ccc(N2CCN(Cc3ccc([N+](=O)[O-])s3)CC2)cc1	> 11.5	–	–	–	–
CC(=O)c1ccc(N2CCN(Cc3ccc([N+](=O)[O-])o3)CC2)cc1	0.3 (≈ 0.0988 µg/mL)	–	–	–	–
CO[C@H]1/C=C/O[C@@]2(C)Oc3c(C)c(O)c4c(O)c(c(/C=N/N5CCN(C)CC5)c(O)c4c3C2=O)NC(=O)/C(C)=C\C=C\[C@H](C)[C@H](O)[C@@H](C)[C@@H](O)[C@@H](C)[C@H](OC(C)=O)[C@@H]1C [RIFAMPIN]	0.07 (≈ 0.0576 µg/mL)	–	–	2.4 (≈ 1.98 µg/mL)	–
COc1cccc(S(=O)(=O)N2CCN(Cc3ccc([N+](=O)[O-])o3)CC2)c1	1.3 (≈ 0.496 µg/mL)	–	–	–	–
O=[N+]([O-])c1ccc(CN2CCN(c3ccccc3)CC2)s1	> 13.1	–	–	–	–
O=[N+]([O-])c1ccc(CN2CCN(c3ccc(N4CCOCC4)cc3)CC2)o1	0.02 (≈ 0.00745 µg/mL)	> 53	> 2650	0.56 (≈ 0.209 µg/mL)	solubility [5]: 2.68 µM (≈ 0.998 µg/mL); Cmax [9]: 5.34 µM; Tmax [10]: 15 min; AUC(0-t) [11]: 4.51 µM·h; half-life [12]: 52.8 min
O=[N+]([O-])c1ccc(CN2CCN(S(=O)(=O)c3ccc(F)cc3)CC2)o1	0.08 (≈ 0.0295 µg/mL)	> 54	> 675	> 21.6	solubility [5]: 108 µM (≈ 40 µg/mL); solubility [6]: 54.1 µM (≈ 20 µg/mL); solubility [7]: 2170 µM (≈ 801 µg/mL); solubility [8]: 13.5 µM (≈ 4.99 µg/mL); Cmax [9]: 3.26 µM; Tmax [10]: 15 min; AUC(0-t) [11]: 4.22 µM·h; half-life [12]: 87.6 min
O=[N+]([O-])c1ccc(CN2CCN(S(=O)(=O)c3ccc(C(F)(F)F)cc3)CC2)o1	0.5 (≈ 0.21 µg/mL)	–	–	–	–
O=[N+]([O-])c1ccc(CN2CCN(c3ccccc3F)CC2)o1	6.55 (≈ 2 µg/mL)	–	–	–	–

Structure (SMILES)	MIC90 [1] [µM]	CC50 at 24 h [2] [µM]	selectivity ratio [3]	MIC90 [4] [µM]	other results
CC(C)(C)c1ccc(N2CCN(Cc3ccc([N+](=O)[O-])o3)CC2)cc1	0.0072 (≈ 0.00247 µg/mL)	> 63	> 700	12.6 (≈ 4.33 µg/mL)	solubility [5]: 116 µM (≈ 40 µg/mL); solubility [6]: 58.2 µM (≈ 20 µg/mL); solubility [7]: 1170 µM (≈ 400 µg/mL); solubility [8]: 2.9 µM (≈ 0.996 µg/mL); Cmax [9]: 2.35 µM; Tmax [10]: 15 min; AUC(0-t) [11]: 2.99 µM·h; half-life [12]: 242 min
O=[N+]([O-])c1ccc(CN2CCN(c3ccccc3)CC2)o1	0.2 (≈ 0.0575 µg/mL)	–	–	–	–
COc1ccc(S(=O)(=O)N2CCN(Cc3ccc([N+](=O)[O-])o3)CC2)cc1	0.31 (≈ 0.118 µg/mL)	–	–	–	–
COc1ccccc1N1CCN(Cc2ccc([N+](=O)[O-])o2)CC1	25.2 (≈ 8 µg/mL)	–	–	–	–
O=[N+]([O-])c1ccc(CN2CCN(c3cccc(Cl)c3)CC2)o1	0.37 (≈ 0.119 µg/mL)	–	–	–	–
O=[N+]([O-])c1ccc(CN2CCN(c3ccc(Cl)cc3)CC2)s1	> 11.8	–	–	–	–
COc1c(N2CCNC(C)C2)c(F)cc2c(=O)c(C(=O)O)cn(C3CC3)c12 (stereo unspecified) [GATIFLOXACIN]	–	–	–	2.66 (≈ 0.999 µg/mL)	–
O=[N+]([O-])c1ccc(CN2CCN(c3ccc(F)cc3)CC2)o1	3.27 (≈ 0.998 µg/mL)	–	–	–	–
O=[N+]([O-])c1ccc(CN2CCOCC2)o1	31.4 (≈ 6.66 µg/mL)	–	–	–	–
CS(=O)(=O)N1CCN(Cc2ccc([N+](=O)[O-])o2)CC1	23.1 (≈ 6.67 µg/mL)	–	–	–	–
COc1cccc(N2CCN(Cc3ccc([N+](=O)[O-])o3)CC2)c1	0.047 (≈ 0.0149 µg/mL)	> 63	> 1580	2.11 (≈ 0.67 µg/mL)	–
N#Cc1cccc(N2CCN(Cc3ccc([N+](=O)[O-])o3)CC2)c1	0.019 (≈ 0.00593 µg/mL)	> 64	> 3200	1.34 (≈ 0.419 µg/mL)	solubility [5]: 256 µM (≈ 80 µg/mL); solubility [6]: 256 µM (≈ 80 µg/mL); solubility [7]: 2560 µM (≈ 801 µg/mL); solubility [8]: 32 µM (≈ 9.99 µg/mL)
Cc1ccc(N2CCN(Cc3ccc([N+](=O)[O-])o3)CC2)cc1	13.2 (≈ 3.98 µg/mL)	–	–	–	–
O=[N+]([O-])c1ccc(CN2CCC(c3ccccc3)CC2)o1	0.59 (≈ 0.169 µg/mL)	–	–	–	–
Cc1ccc(S(=O)(=O)N2CCN(Cc3ccc([N+](=O)[O-])o3)CC2)cc1	0.16 (≈ 0.0585 µg/mL)	> 54	> 338	> 21.9	–
Cc1cccc(N2CCN(Cc3ccc([N+](=O)[O-])o3)CC2)c1C	12.7 (≈ 4 µg/mL)	–	–	–	–
